These are literature values, as cited in patent US20140316796A1, “SYSTEMS, METHODS, AND COMPUTER-READABLE MEDIA FOR LIMITED DISTRIBUTION OF SPECIALTY DRUG USING A COMPUTER HUB OPERATING AT A SINGLE ACCESS POINT” (Jazz Pharmaceuticals, priority 2013, published 2014).

Each structure is given as a SMILES string.

For the data set the following is noted: pH 4.

Consider `CSCC[C@@H]1NC(=O)[C@H](CC(C)C)NC(=O)[C@H](CCCNC(=N)N)NC(=O)[C@H](CO)NC(=O)[C@@H]2CSSC[C@@H]3NC(=O)[C@H](CO)NC(=O)CNC(=O)[C@H]([C@@H](C)O)NC(=O)[C@H](CSSC[C@H](N)C(=O)N[C@@H](CCCCN)C(=O)NCC(=O)N[C@@H](CCCCN)C(=O)NCC(=O)N[C@@H](C)C(=O)N[C@@H](CCCCN)C(=O)N2)NC(=O)[C@H](CSSC[C@@H](C(N)=O)NC(=O)[C@H](CCCCN)NC(=O)CNC(=O)[C@H](CO)NC(=O)[C@H](CCCNC(=N)N)NC3=O)NC(=O)[C@H](CC(=O)O)NC(=O)[C@H](Cc2ccc(O)cc2)NC1=O` [ziconotide], for which the solution stability result was “stable at 45 °C for weeks”.
